Measurements published in patent publication US20170240539A1, “Preparation and Use of Cyclic Sulfonamide Derivatives as PAR-1 Receptor Antagonists” (MERCK SHARP & DOHME CORP., priority 2014, published 2017).

molecular target: T1, PAR-1 receptor (Homo sapiens, UniProt P25116); assay: PAR-1 FLIPR Assay; type: cell-based; details: HEK 293 cells, FLIPR calcium-5 dye; inhibition of signal from PAR1 selective receptor-activating peptide at 80% activation concentration (1.4-2.0 uM); compound incubated 30 minutes at 25 degrees
T1 construct: endogenous in cells; host or cells: HEK 293
T1 sequence (P25116 22-425): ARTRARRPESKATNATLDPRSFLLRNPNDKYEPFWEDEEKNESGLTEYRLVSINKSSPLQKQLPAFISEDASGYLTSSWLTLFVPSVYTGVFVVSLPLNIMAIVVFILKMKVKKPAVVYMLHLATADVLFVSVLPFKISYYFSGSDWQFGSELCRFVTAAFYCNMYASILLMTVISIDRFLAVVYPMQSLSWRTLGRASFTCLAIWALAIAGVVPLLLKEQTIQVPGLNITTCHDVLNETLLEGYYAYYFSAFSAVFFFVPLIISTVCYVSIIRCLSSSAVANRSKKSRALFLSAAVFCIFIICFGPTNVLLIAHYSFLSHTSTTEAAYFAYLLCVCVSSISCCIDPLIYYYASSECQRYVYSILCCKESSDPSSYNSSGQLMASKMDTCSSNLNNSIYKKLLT
Description: The following assay was used to determine the ability of the inventive compounds to inhibit the PAR-1 receptor.
HEK 293 Cells are grown in media containing DMEM, 10% FBS pen/strep/L-Glutamine and non-essential amino acids. The cells are plated in 384-well PDL coated plates at 12000 cells/well and incubated overnight at 37° C./5% CO2. Media is then removed from the cells, which are then incubated with buffer (Hank's containing HEPES and Chaps) containing FLIPR calcium-5 dye, made with buffer containing probenecid, for 60 minutes at 37° C. Varying concentrations of compound in a final concentration of 5% DMSO are then added to the cells and incubated at 25 degrees for 30 minutes. The plates are then added to a FLIPR Tetra cellular screening system and the device adds a concentration of a PAR1 selective receptor-activating peptide with the sequence Ala-parafluoroPhe-Arg-Cha-Cit-Tyr-NH2 (SEQ ID NO: 3) (prepared in water) at a concentration equal to the effective concentration that achieves 80% activation of signaling on the day of the experiment. The range is from 1.4-2.0 uM peptide. The FLIPR reads at an excitation wavelength of 480 nm and an emission wavelength of 535 nm, and performs 60 scans over a 1-2 min reading time. The data are analyzed by taking the peak signal over a portion of the range of the 60 scans and dividing this signal by the minimum signal for that same range. The data are expressed as percent inhibition of the maximum divided by the minimum signal achieved at 80% activation produced by the PAR1 activating peptide on the test day.

| Compound | IC50 [µM] |
| --- | --- |
| CC[C@@H]1CC[C@@H]2[C@H]([C@H]1/C=C/c1ccc(-c3ccccc3C#N)cn1)[C@@H](C)N(C(=O)OC(C)(C)C)S2(=O)=O [Example 11, (3R,3aR,4R,5R,7aR)-tert-butyl 4-((E)-2-(5-(2-cyanophenyl)pyridin-2-yl)vinyl)-5-ethyl-3-methylhexahydrobenzo[d]isothiazole-2(3H)-carboxylate1,1-dioxide] | 0.286 |
| C[C@@H]1[C@H]2[C@@H](/C=C/c3ccc(-c4cccc(F)c4)cn3)[C@H](C)C(F)(F)C[C@H]2S(=O)(=O)N1C(=O)OC(C)(C)C [Example 14, (3R,3aR,4S,5S,7aR)-tert-butyl 6,6-difluoro-4-((E)-2-(5-(3-fluorophenyl)pyridin-2-yl)vinyl)-3,5-dimethylhexahydrobenzo[d]isothiazole-2(3H)-carboxylate 1,1-dioxide] | 0.383 |
| Cc1nc(/C=C/[C@@H]2[C@H]3[C@@H](CC(F)(F)[C@H]2C)S(=O)(=O)N[C@@H]3C)ccc1-c1ccccc1C#N [Example 6, (3R,3aR,4S,5S,7aR)-4-((E)-2-(5-(2-cyanophenyl)pyridin-2-yl)-6-methylvinyl)-6,6-difluoro-3,5-dimethyloctahydrobenzo[d]isothiazole-1,1-dioxide] | 0.0667 |
| Cc1nc(/C=C/[C@@H]2[C@H]3[C@@H](CC(F)(F)[C@H]2C)S(=O)(=O)N[C@@H]3C)ccc1-c1cccnc1C#N [Example 7] | 0.041 |
| C[C@H]1NS(=O)(=O)[C@]2(CC(N)=O)CC(F)(F)[C@@H](C)[C@H](/C=C/c3ccc(-c4cccnc4C#N)cn3)[C@H]12 [Example 24, 2-((3R,3aR,4S,5S,7aR)-6,6-difluoro-4-((E)-2-(2′-cyano-[3,3′-bipyridin]-6-yl)vinyl)-3,5-dimethyl-1,1-dioxidooctahydrobenzo[d]isothiazol-7a-yl)acetamide] | 0.089 |
| COc1ncccc1-c1ccc(/C=C/[C@@H]2[C@@H]3[C@@H](C)N(C(=O)OC(C)(C)C)S(=O)(=O)[C@]3(CC(N)=O)CC(F)(F)[C@H]2C)nc1 [Example 21] | 0.11 |

The next compounds have a lower IC50 than those just listed; values first:

| IC50 [µM] | Compound |
| --- | --- |
| 0.0118 | C[C@H]1NS(=O)(=O)[C@]2(C)CC(F)(F)[C@@H](C)[C@H](/C=C/c3ccc(-c4ccccc4C#N)cn3)[C@H]12 [Example 16, (3R,3aR,4S,5S,7aR)-6,6-difluoro-4-((E)-2-(5-(2-cyanophenyl)pyridin-2-yl)vinyl)-3,5,7a-trimethyloctahydrobenzo[d]isothiazole 1,1-dioxide] |
| 0.003 | C[C@H]1NS(=O)(=O)[C@]2(CC(N)=O)CC(F)(F)[C@@H](C)[C@H](/C=C/c3ccc(-c4ccccc4C#N)cn3)[C@H]12 [Example 23, 2-((3R,3aR,4S,5S,7aR)-4-((E)-2-(5-(2-cyanophenyl)pyridin-2-yl)vinyl)-6,6-difluoro-3,5-dimethyl-1,1-dioxidooctahydrobenzo[d]isothiazol-7a-yl)acetamide] |
| 0.019 | C[C@H]1NS(=O)(=O)[C@@H]2CC(F)(F)[C@@H](C)[C@H](/C=C/c3ccc(-c4cccc(F)c4)cn3)[C@@H]21 [Example 5, (3R,3aR,4S,5S,7aR)-6,6-difluoro-4-((E)-2-(5-(3-fluorophenyl)pyridin-2-yl)vinyl)-3,5-dimethyloctahydrobenzo[d]isothiazole 1,1-dioxide] |
| 0.0042 | COc1ncccc1-c1ccc(/C=C/[C@@H]2[C@@H]3[C@@H](C)NS(=O)(=O)[C@]3(C)CC(F)(F)[C@H]2C)nc1 [Example 12, (3R,3aR,4S,5S,7aR)-6,6-difluoro-4-((E)-2-(2′-methoxy-[3,3′-bipyridin]-6-yl)vinyl)-3,5,7a-trimethyloctahydrobenzo[d]isothiazole 1,1-dioxide] |
| 0.0119 | C[C@H]1NS(=O)(=O)[C@@H]2CC(F)(F)[C@@H](C)[C@H](/C=C/c3ccc(-c4ccccc4C#N)cn3)[C@@H]21 [Example 3, (3R,3aR,4S,5S,7aR)-4-((E)-2-(5-(2-cyanophenyl)pyridin-2-yl)vinyl)-6,6-difluoro-3,5-dimethyloctahydrobenzo[d]isothiazole-1,1-dioxide] |
